Reference: ChEMBL document CHEMBL1129539, “2,4-diamino-5-deaza-6-substituted pyrido[2,3-d]pyrimidine antifolates as potent and selective nonclassical inhibitors of dihydrofolate reductases” (J Med Chem, 1996)

Experiments:
[1] = biological target: T1, Dihydrofolate reductase (Rattus norvegicus, UniProt Q920D2)
T1 sequence (Q920D2 whole entry): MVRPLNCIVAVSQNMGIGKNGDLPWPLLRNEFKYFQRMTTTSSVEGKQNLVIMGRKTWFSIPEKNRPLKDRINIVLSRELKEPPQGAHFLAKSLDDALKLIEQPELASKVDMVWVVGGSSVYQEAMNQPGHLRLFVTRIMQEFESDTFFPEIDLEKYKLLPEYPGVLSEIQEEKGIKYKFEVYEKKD
Description: Inhibitory activity against rat liver dihydrofolate reductase (in 90 uM dihydrofolic acid)

[2] = biological target: T2, Bifunctional dihydrofolate reductase-thymidylate synthase (Toxoplasma gondii, UniProt Q07422)
T2 sequence (Q07422 whole entry): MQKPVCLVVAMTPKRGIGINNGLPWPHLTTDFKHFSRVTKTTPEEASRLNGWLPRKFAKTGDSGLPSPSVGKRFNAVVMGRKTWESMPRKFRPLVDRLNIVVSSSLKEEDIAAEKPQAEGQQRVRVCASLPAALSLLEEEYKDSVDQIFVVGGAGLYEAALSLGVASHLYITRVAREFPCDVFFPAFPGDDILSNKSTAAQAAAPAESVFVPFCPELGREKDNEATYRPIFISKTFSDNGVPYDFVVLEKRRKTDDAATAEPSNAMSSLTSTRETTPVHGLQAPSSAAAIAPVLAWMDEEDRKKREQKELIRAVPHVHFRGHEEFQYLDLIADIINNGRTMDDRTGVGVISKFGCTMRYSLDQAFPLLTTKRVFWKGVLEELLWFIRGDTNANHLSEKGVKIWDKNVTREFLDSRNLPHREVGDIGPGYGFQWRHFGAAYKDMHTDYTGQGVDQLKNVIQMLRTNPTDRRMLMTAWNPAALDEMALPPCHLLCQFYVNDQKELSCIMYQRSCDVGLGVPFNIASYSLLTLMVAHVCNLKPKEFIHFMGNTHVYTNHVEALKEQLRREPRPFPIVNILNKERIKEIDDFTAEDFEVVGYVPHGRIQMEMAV
Description: Inhibitory activity against Toxoplasma gondii dihydrofolate reductase (in 90 uM dihydrofolic acid)

[3] = biological target: T3, Dihydrofolate reductase (Pneumocystis carinii, UniProt P16184)
T3 sequence (P16184 whole entry): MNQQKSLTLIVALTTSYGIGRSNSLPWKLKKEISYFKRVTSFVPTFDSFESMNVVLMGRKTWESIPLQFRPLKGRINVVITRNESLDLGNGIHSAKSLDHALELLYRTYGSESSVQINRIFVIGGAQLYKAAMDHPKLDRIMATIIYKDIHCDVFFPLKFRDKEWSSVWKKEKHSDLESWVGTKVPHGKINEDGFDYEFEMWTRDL
Description: Inhibitory activity against Pneumocystis carinii dihydrofolate reductase (in 90 uM dihydrofolic acid)

[4] = biological target: T4, Dihydrofolate reductase (Homo sapiens, UniProt P00374); assay: Inhibitory activity against recombinant human dihydrofolate reductase(in 50 uM dihydrofolic acid)
T4 sequence (P00374 whole entry): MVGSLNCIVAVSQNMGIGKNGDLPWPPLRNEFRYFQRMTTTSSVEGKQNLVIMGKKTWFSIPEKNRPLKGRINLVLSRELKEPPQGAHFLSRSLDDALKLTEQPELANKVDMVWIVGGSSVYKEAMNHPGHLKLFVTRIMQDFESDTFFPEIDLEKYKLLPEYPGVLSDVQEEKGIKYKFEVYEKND

[5] = biological target: Dihydrofolate reductase (Lactobacillus casei, UniProt P00381); assay: Inhibitory activity against recombinant lc dihydrofolate reductase(in 50 uM dihydrofolic acid); design: species or system Lacticaseibacillus casei
Sequence of Dihydrofolate reductase (Lactobacillus casei, UniProt P00381) (P00381 whole entry): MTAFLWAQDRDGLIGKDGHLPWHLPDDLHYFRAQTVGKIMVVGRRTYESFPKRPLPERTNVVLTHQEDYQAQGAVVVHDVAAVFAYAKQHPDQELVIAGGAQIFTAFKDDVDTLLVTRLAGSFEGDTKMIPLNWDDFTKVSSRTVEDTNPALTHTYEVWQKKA

[6] = biological target: T5, Dihydrofolate reductase (Escherichia coli, UniProt P0ABQ4); assay: Inhibitory activity against recombinant ec dihydrofolate reductase(in 50 uM dihydrofolic acid)
T5 sequence (P0ABQ4 whole entry): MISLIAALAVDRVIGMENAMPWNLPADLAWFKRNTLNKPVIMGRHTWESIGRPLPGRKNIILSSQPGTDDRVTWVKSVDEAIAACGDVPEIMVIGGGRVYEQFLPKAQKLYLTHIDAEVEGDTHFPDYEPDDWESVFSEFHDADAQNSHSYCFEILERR

[7] = biological target: T2, Bifunctional dihydrofolate reductase-thymidylate synthase; remark: listed apart in the source
Description: Inhibitory activity against Toxoplasma gondii dihydrofolate reductase (in 50 uM dihydrofolic acid)

IC50 [1]	IC50 [3]	IC50 [4]	Compound	IC50 [2]	IC50 [5]	IC50 [6]	IC50 [7]
1100 nM	5500 nM		COc1cc(OC)c(OC)cc1CNc1cnc2nc(N)nc(N)c2c1	480 nM			
2100 nM		6200 nM	Nc1nc(N)c2cc(NCc3ccccc3)cnc2n1	520 nM			
57 nM		8500 nM	COc1ccc(OC)c(CN(C)c2cnc3nc(N)nc(N)c3c2)c1		5700 nM	140 nM	
33 nM	61 nM		COc1cc(CN(C)c2cnc3nc(N)nc(N)c3c2)cc(OC)c1OC	14 nM			
430 nM	8200 nM		COc1ccc(CNc2cnc3nc(N)nc(N)c3c2)c2ccccc12	380 nM			
			COc1cc(CNc2cnc3nc(N)nc(N)c3c2)cc(OC)c1	1200 nM			
1270 nM	9200 nM		COc1cc(C(C)Nc2cnc3nc(N)nc(N)c3c2)cc(OC)c1OC (stereo unspecified)	194 nM			
			COc1ccc(OC)c(CNc2cnc3nc(N)nc(N)c3c2)c1	310 nM			500 nM
1200 nM			COc1cc(OC)c(CNc2cnc3nc(N)nc(N)c3c2)c(OC)c1	230 nM			
1500 nM	4800 nM		COc1ccc(CNc2cnc3nc(N)nc(N)c3c2)cc1OC	730 nM			
140 nM	68 nM	700 nM	CN(Cc1ccccc1)c1cnc2nc(N)nc(N)c2c1	32 nM			35 nM
2900 nM	24300 nM		Nc1nc(N)c2cc(NCc3ccc(Oc4ccccc4)cc3)cnc2n1	3700 nM			
			COc1cc(CNc2cnc3nc(N)nc(N)c3c2)cc(OC)c1OC	350 nM			1300 nM
370 nM	15400 nM		COc1ccc2c(CNc3cnc4nc(N)nc(N)c4c3)cccc2c1	710 nM			
1400 nM	1800 nM		CN(CCc1ccccc1)c1cnc2nc(N)nc(N)c2c1	920 nM			
30 nM	79 nM	530 nM	COc1ccc(CN(C)c2cnc3nc(N)nc(N)c3c2)c(OC)c1OC	26 nM			26 nM
3240 nM	15300 nM		COc1ccc(CNc2cnc3nc(N)nc(N)c3c2)c(OC)c1OC	670 nM			
72 nM		2900 nM	COc1cc(CN(C)c2cnc3nc(N)nc(N)c3c2)cc(OC)c1	31 nM			29 nM
73000 nM			CCOc1cc(Cc2cnc(N)nc2N)cc(OCC)c1-n1cccc1 [EPIROPRIM]	470 nM			

Compound	IC50 [1]	IC50 [3]	IC50 [4]	IC50 [2]	IC50 [5]	IC50 [6]	IC50 [7]
Nc1nc(N)c2cc(NCc3cccc4ccccc34)cnc2n1	240 nM	3900 nM		980 nM			
Nc1nc(N)c2cc(NCCc3ccccc3)cnc2n1	280 nM	1940 nM		4450 nM			
CN(Cc1ccc(C(=O)NC(=O)[C@H](N)CCC(=O)O)cc1)c1cnc2nc(N)nc(N)c2c1			650 nM		170 nM	13 nM	
